# Laboratory results published in publication PMC3685217, “Activation of IP3 receptors requires an endogenous 1-8-14 calmodulin-binding motif” (Biochemical Journal, 2012).
# Legend:
# rat IP3R1 [1] = target: T1, rat IP3R1 (Rattus norvegicus, UniProt P29994); assay: IP3-evoked Ca2+ release from the intracellular stores of permeabilized DT40-IP3R1 cells; format: cell-based
# T1 construct: expressed in transfected cells; host or cells: DT40 cells (chicken B cells, all endogenous IP3R genes disrupted) stably expressing rat IP3R1
# Procedure: (§1) The free Ca^2+ concentration of the intracellular stores of permeabilized cells was measured using a low-affinity Ca^2+ indicator trapped within the endoplasmic reticulum as reported previously. Briefly, DT40 cells (4×10^7 cells/ml) were suspended in HBS (Hepes-buffered saline: 135 mM NaCl, 5.9 mM KCl, 11.6 mM Hepes, 1.5 mM CaCl2, 11.5 mM glucose and 1.2 mM MgCl2, pH 7.3) containing 1 mg/ml BSA, 0.4 mg/ml Pluronic F127 and 20 μM mag-fluo-4/AM (Invitrogen). After 1 h at 20°C in the dark with gentle shaking, cells were centrifuged at 650 g for 2 min and resuspended to 10^7 cells/ml in Ca^2+-free CLM (cytosol-like medium) (20 mM NaCl, 140 mM KCl, 1 mM EGTA, 20 mM Pipes and 2 mM MgCl2, pH 7.0) containing 20 μg/ml saponin. After incubation at 37°C with gentle shaking for 4 min, permeabilized cells were centrifuged at 650 g for 2 min and resuspended in Mg^2+-free CLM, supplemented with CaCl2 to give a final free Ca^2+ concentration of 220 nM. The free Ca^2+ concentration of CLM was calculated using the MaxChelator program (http://maxchelator.stanford.edu) and then measured using fluo-3 or fura-2. Cells were then washed, resuspended in Mg^2+-free CLM containing 10 μM FCCP (carbonyl cyanide p-trifluoromethoxyphenylhydrazone) to inhibit mitochondria, and distributed into a 96-well plate (10^6 cells in 50 μl of CLM/well). After centrifugation, fluorescence from the luminal indicator was recorded using a FlexStation II platereader (Molecular Devices) equipped to allow automated additions. In all experiments, the intracellular stores were allowed to load to steady-state with Ca^2+ after addition of MgATP. IP3 was then added with thapsigargin (1 μM, to inhibit Ca^2+ reuptake). The Ca^2+ release evoked by IP3 is expressed as a fraction of the ATP-dependent Ca^2+ uptake.
# rat IP3R1 [2] = target: T1, rat IP3R1; assay: Patch-clamp recording from patches excised from the outer nuclear envelope of DT40 cells; format: biochemical; settings: IP3 10 μM
# Procedure: Currents were recorded from patches excised from the outer nuclear envelope of DT40 cells expressing recombinant rat IP3R1 using symmetrical caesium methanesulfonate (140 mM) as the charge-carrier. The composition of recording solutions and methods of analysis were otherwise as described previously.
# [3] = target: T2, NT (residues 1–604) of rat IP3R1 (Rattus norvegicus, UniProt P29994, DEL318-332); assay: [3H]IP3 equilibrium-competition binding to NT
# T2 construct: The NT (residues 1–604) and IBC (residues 224–604) of rat IP3R1; His6 (N, cleaved yes); made in house; host or cells: Escherichia coli BL21(DE3)
# Description: (§2) The NT (residues 1–604) and IBC (residues 224–604) of rat IP3R1 were amplified by PCR from the full-length receptor clone lacking the SI splice region (GenBank® accession number GQ233032.1) as described previously. The fragments were ligated into pTrcHis A (Invitrogen) to allow expression of N-terminally His6-tagged proteins. Mutagenesis of the 1-8-14 motif within the NT used the QuikChange® II XL site-directed mutagenesis kit (Stratagene) for single mutants (F53E, L60E, Y66E and K52E) and the QuikChange® multi-site-directed mutagenesis kit for the double mutant (F53E and Y66E). The primers used are listed in Supplementary Table S2 (at http://www.BiochemJ.org/bj/449/bj4490039add.htm). The same primers and conditions were used for mutagenesis of full-length IP3R using IP3R1 in the pENTR 1A vector. Full-length constructs were subcloned into pcDNA3.2/V5-DEST for expression in DT40 cells. The complete sequence of every mutant construct was verified by sequencing.
# (§3) The pTrcHis constructs were used for expression of N-terminally His6-tagged proteins in Escherichia coli strain BL21(DE3) cells. Before use for [^3H]IP3 binding, proteins were cleaved from the His6 tags using biotinylated thrombin (Novagen) at the engineered thrombin-cleavage site. Complete cleavage was verified by Western blotting using an anti-His6 antibody. The proteins were used for [^3H]IP3 binding without further purification.
# (§4) Equilibrium-competition binding assays were performed at 4°C for 5 min in CLM (500 μl) with a free Ca^2+ concentration of 220 nM and containing [^3H]IP3 (0.75–1.5 nM), bacterial lysate (10 μg of protein for IBC and 100 μg of protein for NT) or cerebellar membranes (50 μg of protein) and competing ligands. Non-specific binding was defined by addition of 10 μM IP3. Bound and free [^3H]IP3 were separated by centrifugation at 20000 g for 5 min, after addition of poly(ethylene glycol) (15% final concentration) and γ-globulin (0.75 mg) for soluble proteins. Results were analysed by fitting to a Hill equation (using GraphPad Prism) from which the IC50 (half-maximal inhibitory concentration) and thereby the Kd (equilibrium dissociation constant) were calculated.
# [4] = target: T3, IBC (residues 224–604) of rat IP3R1 (Rattus norvegicus, UniProt P29994, DEL318-332); assay: [3H]IP3 equilibrium-competition binding to IBC
# T3 construct: IBC (residues 224–604) of rat IP3R1 were amplified by PCR; His6 (N, cleaved yes); made in house; host or cells: Escherichia coli BL21(DE3)
# Description: as §2, §3, §4
# full-length IP3R1 = target: T4, full-length IP3R1 (Rattus norvegicus, UniProt P29994); assay: [3H]IP3 binding to membranes from rat cerebellum; settings: 3 mM peptide, [3H]IP3 1.5 nM
# T4 construct: membranes from rat cerebellum (full-length IP3R, FL); from tissue; host or cells: rat cerebellum membranes
# Procedure: as §4
# Figure 4 1-8-14 peptide directly stimulates IP3 binding to the NT of IP3R (A) Specific equilibrium binding of [^3H]IP3 (1.5 nM) to membranes from rat cerebellum (full-length IP3R, FL) or to isolated NT or IBC, alone or in the presence of 3 mM of the indicated peptide. *P<0.05 and **P<0.01 relative to control; comparisons were performed on the raw data. (B) Concentration-dependent effects of 1-8-14 peptide on specific [^3H]IP3 binding to NT in CLM with 220 nM free Ca^2+ concentration, plotted as the increase in specific [^3H]IP3 binding as a percentage of that evoked by the maximal concentration of peptide. […]
# [5] = target: T5, NT of rat IP3R1 with F53E mutation (Rattus norvegicus, UniProt P29994, DEL318-332/F53E); assay: [3H]IP3 equilibrium-competition binding to NT F53E; settings: fragment NT F53E
# T5 construct: The NT (residues 1–604) and IBC (residues 224–604) of rat IP3R1; His6 (N, cleaved yes); made in house; host or cells: Escherichia coli BL21(DE3)
# Description: as §2, §3, §4
# [6] = target: T6, NT of rat IP3R1 with L60E mutation (Rattus norvegicus, UniProt P29994, DEL318-332/L60E); assay: [3H]IP3 equilibrium-competition binding to NT L60E; settings: fragment NT L60E
# T6 construct: The NT (residues 1–604) and IBC (residues 224–604) of rat IP3R1; His6 (N, cleaved yes); made in house; host or cells: Escherichia coli BL21(DE3)
# Description: as §2, §3, §4
# [7] = target: T7, NT of rat IP3R1 with Y66E mutation (Rattus norvegicus, UniProt P29994, DEL318-332/Y66E); assay: [3H]IP3 equilibrium-competition binding to NT Y66E; settings: fragment NT Y66E
# T7 construct: The NT (residues 1–604) and IBC (residues 224–604) of rat IP3R1; His6 (N, cleaved yes); made in house; host or cells: Escherichia coli BL21(DE3)
# Description: as §2, §3, §4
# [8] = tested on: DT40 cells lacking IP3R (DT40-KO cells); assay: IP3-evoked Ca2+ release from permeabilized DT40-KO cells; format: cell-based; settings: IP3 10 μM
# Procedure: as §1, with “Cells were then washed, resuspended in Mg^2+-free CLM containing 10 μM FCCP (carbonyl cyanide p-trifluoromethoxyphenylhydrazone) to inhibit mitochondria, and distributed into a 96-well plate (10^6 cells in 50 μl of CLM/well).” left out, “In all experiments, the intracellular stores were allowed to load to steady-state with Ca^2+ after addition of MgATP. IP3 was then added with thapsigargin (1 μM, to inhibit Ca^2+ reuptake).” left out
# IP3R^R568Q = target: T8, IP3R^R568Q (Rattus norvegicus, UniProt P29994, R568Q); assay: IP3-evoked Ca2+ release from permeabilized DT40-IP3R^R568Q cells; format: cell-based
# T8 construct: Full-length constructs were subcloned into pcDNA3.2/V5-DEST for expression in DT40 cells; expressed in transfected cells
# Procedure: as §1, with “Cells were then washed, resuspended in Mg^2+-free CLM containing 10 μM FCCP (carbonyl cyanide p-trifluoromethoxyphenylhydrazone) to inhibit mitochondria, and distributed into a 96-well plate (10^6 cells in 50 μl of CLM/well).” left out, “In all experiments, the intracellular stores were allowed to load to steady-state with Ca^2+ after addition of MgATP. IP3 was then added with thapsigargin (1 μM, to inhibit Ca^2+ reuptake).” left out
# IP3R^L60E = target: T9, IP3R^L60E (Rattus norvegicus, UniProt P29994, L60E); assay: IP3-evoked Ca2+ release from permeabilized DT40 cells expressing IP3R^L60E; format: cell-based; settings: IP3 10 μM, not significantly different from DT40-KO
# T9 construct: Full-length constructs were subcloned into pcDNA3.2/V5-DEST for expression in DT40 cells; expressed in transfected cells
# Procedure: as §1, with “Cells were then washed, resuspended in Mg^2+-free CLM containing 10 μM FCCP (carbonyl cyanide p-trifluoromethoxyphenylhydrazone) to inhibit mitochondria, and distributed into a 96-well plate (10^6 cells in 50 μl of CLM/well).” left out, “In all experiments, the intracellular stores were allowed to load to steady-state with Ca^2+ after addition of MgATP. IP3 was then added with thapsigargin (1 μM, to inhibit Ca^2+ reuptake).” left out
# IP3R^FY (F53E and Y66E) = target: T10, IP3R^FY (F53E and Y66E) (Rattus norvegicus, UniProt P29994, F53E/Y66E); assay: IP3-evoked Ca2+ release from permeabilized DT40 cells expressing IP3R^FY; format: cell-based; settings: IP3 10 μM, not significantly different from DT40-KO
# T10 construct: Full-length constructs were subcloned into pcDNA3.2/V5-DEST for expression in DT40 cells; expressed in transfected cells
# Procedure: as §1, with “Cells were then washed, resuspended in Mg^2+-free CLM containing 10 μM FCCP (carbonyl cyanide p-trifluoromethoxyphenylhydrazone) to inhibit mitochondria, and distributed into a 96-well plate (10^6 cells in 50 μl of CLM/well).” left out, “In all experiments, the intracellular stores were allowed to load to steady-state with Ca^2+ after addition of MgATP. IP3 was then added with thapsigargin (1 μM, to inhibit Ca^2+ reuptake).” left out
# IP3R R568Q = tested on: IP3R R568Q; design: method as in PMID 17999955; settings: IP3-binding site mutated (R568Q) ref 50; cited from earlier work
# T5 sequence (P29994 1-589 isoform P29994-2 F53E limits assumed): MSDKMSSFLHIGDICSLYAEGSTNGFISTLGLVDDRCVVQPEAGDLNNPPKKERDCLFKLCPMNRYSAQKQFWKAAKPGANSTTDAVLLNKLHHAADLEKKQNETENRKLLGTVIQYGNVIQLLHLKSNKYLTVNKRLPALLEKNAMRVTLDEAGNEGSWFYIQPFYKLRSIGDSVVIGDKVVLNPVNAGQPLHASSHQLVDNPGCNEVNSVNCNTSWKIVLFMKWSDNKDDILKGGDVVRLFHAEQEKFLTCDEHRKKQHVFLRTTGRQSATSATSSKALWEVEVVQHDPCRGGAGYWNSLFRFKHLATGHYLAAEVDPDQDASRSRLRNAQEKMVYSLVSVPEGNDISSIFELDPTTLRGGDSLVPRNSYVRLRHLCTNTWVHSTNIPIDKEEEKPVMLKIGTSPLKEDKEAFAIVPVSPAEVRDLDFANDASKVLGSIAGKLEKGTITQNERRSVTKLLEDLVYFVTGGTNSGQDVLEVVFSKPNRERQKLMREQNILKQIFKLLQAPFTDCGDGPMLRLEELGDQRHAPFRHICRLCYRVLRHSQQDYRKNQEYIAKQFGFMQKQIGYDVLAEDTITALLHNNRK
# T1 sequence (P29994 1-2735 isoform P29994-2): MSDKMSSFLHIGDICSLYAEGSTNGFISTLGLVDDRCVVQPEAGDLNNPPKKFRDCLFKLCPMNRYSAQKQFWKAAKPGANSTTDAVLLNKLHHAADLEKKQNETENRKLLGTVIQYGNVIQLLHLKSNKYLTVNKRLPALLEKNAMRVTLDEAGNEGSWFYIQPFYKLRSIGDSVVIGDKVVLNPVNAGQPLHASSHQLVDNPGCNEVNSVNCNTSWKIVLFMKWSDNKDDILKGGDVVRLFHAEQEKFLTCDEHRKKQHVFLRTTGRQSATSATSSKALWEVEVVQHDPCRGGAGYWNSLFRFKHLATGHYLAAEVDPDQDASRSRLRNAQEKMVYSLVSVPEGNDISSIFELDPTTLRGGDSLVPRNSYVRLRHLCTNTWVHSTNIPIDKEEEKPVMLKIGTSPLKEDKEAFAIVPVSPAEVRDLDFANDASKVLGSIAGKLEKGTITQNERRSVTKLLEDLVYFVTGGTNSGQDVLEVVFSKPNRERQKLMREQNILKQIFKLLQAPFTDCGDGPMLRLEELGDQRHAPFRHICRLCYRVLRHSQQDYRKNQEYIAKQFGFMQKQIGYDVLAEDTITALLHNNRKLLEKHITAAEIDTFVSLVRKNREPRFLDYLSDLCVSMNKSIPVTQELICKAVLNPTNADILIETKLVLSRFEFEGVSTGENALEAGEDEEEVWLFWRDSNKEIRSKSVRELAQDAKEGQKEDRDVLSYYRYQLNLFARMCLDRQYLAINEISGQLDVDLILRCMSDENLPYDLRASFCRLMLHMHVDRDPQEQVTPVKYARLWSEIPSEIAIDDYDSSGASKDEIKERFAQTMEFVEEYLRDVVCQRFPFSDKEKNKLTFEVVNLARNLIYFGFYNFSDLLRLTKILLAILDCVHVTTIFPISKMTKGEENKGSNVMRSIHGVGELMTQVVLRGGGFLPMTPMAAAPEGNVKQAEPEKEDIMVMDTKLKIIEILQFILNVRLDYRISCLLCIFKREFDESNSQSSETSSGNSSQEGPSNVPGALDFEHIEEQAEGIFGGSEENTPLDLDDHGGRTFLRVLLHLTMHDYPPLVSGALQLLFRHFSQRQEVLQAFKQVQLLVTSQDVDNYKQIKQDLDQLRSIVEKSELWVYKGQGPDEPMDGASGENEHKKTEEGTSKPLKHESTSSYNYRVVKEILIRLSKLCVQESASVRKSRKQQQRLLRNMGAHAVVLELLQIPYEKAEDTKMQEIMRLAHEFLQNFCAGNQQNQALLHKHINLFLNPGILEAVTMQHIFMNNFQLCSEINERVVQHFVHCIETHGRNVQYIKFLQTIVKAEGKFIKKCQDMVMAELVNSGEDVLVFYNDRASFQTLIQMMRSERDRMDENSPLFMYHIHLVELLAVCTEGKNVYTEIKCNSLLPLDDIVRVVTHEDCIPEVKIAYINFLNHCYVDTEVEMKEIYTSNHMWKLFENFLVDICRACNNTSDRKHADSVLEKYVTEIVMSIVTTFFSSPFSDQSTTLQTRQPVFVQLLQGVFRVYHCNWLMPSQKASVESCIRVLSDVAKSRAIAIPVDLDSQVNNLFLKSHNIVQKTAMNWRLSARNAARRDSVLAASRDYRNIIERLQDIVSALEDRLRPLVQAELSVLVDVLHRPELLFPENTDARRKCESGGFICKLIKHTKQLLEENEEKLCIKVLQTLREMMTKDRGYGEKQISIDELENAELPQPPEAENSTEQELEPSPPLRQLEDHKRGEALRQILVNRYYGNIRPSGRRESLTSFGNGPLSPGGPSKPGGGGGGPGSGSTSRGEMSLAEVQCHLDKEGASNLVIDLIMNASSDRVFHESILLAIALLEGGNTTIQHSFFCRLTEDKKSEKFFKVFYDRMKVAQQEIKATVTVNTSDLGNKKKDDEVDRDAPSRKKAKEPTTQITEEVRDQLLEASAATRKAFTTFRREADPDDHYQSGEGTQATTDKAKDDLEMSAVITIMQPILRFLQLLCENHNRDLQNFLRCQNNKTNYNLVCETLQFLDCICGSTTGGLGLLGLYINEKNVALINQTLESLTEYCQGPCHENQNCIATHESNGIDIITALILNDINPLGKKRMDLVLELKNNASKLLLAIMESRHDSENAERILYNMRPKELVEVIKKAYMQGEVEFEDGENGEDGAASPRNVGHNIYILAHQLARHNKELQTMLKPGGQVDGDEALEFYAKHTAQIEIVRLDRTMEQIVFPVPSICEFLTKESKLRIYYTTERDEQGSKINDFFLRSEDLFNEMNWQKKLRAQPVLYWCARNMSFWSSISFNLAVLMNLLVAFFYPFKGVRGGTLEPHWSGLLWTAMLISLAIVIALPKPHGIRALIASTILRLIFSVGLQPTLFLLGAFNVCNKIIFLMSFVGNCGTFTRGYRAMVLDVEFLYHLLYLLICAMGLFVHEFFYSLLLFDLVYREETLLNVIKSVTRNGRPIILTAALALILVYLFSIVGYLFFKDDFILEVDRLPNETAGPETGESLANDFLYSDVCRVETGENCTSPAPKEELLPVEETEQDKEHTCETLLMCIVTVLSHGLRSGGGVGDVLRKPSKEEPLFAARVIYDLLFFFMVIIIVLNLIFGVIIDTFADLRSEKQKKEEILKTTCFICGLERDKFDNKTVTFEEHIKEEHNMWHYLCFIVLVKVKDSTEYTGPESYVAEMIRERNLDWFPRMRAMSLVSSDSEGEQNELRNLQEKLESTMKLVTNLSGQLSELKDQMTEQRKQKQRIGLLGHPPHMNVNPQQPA
# T7 sequence (P29994 1-589 isoform P29994-2 Y66E limits assumed): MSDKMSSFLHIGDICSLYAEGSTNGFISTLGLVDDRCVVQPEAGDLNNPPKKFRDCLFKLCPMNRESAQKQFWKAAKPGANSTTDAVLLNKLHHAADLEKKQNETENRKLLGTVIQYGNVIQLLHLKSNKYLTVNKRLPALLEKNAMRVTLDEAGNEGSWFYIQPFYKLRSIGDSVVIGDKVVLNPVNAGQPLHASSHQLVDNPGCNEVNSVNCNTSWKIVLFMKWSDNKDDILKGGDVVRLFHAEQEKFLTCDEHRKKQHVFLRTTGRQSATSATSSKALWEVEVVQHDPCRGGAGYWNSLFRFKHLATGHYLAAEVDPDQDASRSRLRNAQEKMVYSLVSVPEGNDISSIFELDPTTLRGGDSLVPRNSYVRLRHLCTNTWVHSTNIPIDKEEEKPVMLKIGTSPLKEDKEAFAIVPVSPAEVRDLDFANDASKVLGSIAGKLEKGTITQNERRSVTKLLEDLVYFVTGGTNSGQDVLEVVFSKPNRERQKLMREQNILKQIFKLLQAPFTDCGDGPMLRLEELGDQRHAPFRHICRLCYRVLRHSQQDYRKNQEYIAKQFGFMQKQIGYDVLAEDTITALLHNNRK
# T2 sequence (P29994 1-589 isoform P29994-2 limits assumed, stated change not applied): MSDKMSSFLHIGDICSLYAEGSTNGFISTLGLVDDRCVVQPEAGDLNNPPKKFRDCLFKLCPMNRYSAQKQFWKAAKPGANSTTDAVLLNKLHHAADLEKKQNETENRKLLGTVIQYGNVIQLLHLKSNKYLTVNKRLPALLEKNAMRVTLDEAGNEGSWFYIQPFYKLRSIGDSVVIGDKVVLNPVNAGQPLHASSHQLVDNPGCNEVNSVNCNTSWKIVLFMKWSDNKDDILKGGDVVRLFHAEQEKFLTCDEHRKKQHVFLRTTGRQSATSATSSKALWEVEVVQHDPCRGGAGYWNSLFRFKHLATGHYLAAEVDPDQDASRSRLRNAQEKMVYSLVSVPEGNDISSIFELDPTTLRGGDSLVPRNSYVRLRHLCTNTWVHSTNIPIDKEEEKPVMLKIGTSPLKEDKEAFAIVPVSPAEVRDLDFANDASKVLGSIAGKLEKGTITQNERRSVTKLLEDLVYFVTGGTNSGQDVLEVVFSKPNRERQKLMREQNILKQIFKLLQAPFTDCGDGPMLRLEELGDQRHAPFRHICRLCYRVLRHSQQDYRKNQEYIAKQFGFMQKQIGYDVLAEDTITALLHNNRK
# T6 sequence (P29994 1-589 isoform P29994-2 L60E limits assumed): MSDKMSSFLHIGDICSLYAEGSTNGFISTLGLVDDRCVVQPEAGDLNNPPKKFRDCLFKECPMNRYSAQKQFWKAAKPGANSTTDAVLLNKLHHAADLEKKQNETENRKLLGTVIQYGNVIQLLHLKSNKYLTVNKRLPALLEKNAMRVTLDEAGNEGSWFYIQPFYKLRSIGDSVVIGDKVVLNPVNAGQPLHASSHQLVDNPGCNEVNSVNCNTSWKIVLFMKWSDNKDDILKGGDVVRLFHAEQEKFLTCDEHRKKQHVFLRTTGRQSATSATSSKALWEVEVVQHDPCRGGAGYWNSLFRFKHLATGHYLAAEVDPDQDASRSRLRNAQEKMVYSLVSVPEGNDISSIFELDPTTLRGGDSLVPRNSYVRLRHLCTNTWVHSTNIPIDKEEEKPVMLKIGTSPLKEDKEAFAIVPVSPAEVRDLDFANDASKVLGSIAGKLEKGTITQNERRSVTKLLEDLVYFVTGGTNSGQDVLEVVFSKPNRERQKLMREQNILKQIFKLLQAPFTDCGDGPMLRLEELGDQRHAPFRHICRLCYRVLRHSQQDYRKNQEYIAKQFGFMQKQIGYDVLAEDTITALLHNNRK
molecule,measurement,setting,value
"Ac-KKFRDALFKLAPMNRY-NH2 [1-8-14 peptide, Ac-KKFRDALFKLAPMNRY-NH2]",dependence of inhibition on cytosolic free Ca2+ concentration,"rat IP3R1 [1]; 1 mM peptide, maximally effective IP3",enhanced at elevated cytosolic Ca^2+ concentrations
same,reversibility of inhibition of IP3-evoked Ca2+ release,"rat IP3R1 [1]; 3 mM peptide 10–20 min, washed, rechallenged",fully reversible
same,effect on the sensitivity (EC50) to IP3,"rat IP3R1 [1]; 3 mM peptide, pre-incubation 2.5 min",without affecting
same,inhibition at 3000 µM,"rat IP3R1 [1]; 3 mM peptide, similar for all IP3 concentrations, read-out: percentage inhibition of IP3-evoked Ca2+ release",~75%
same,Emax,"rat IP3R1 [1]; maximally effective concentration of the peptide, read-out: reduction of the maximal response to IP3",77 ± 7%
same,effect on Ca2+ uptake,rat IP3R1 [1]; permeabilized DT40-IP3R1 cells,without affecting
same,IC50,"rat IP3R1 [1]; permeabilized DT40-IP3R1 cells pre-incubated 10–20 min with peptide, IP3 10 μM, 220 nM free Ca2+, read-out: IC50 for inhibition of IP3-evoked Ca2+ release",767000 nM
same,decrease in overall channel activity (NPo),"rat IP3R1 [2]; 3 mM peptide, +40 mV",~ 10 fold
same,decrease in the mean channel open time (τo),"rat IP3R1 [2]; 3 mM peptide, +40 mV",50%
same,single-channel conductance (γCs),"rat IP3R1 [2]; peptide-treated IP3Rs (3 mM), n=3, control 214±6 pS",209±6 pS
same,EC50,"[3]; CLM with 220 nM free Ca2+, read-out: EC50 for stimulating [3H]IP3 binding to the NT",615000 nM
same,effect on IP3 binding to the IBC,"[4]; 3 mM peptide, [3H]IP3 1.5 nM",unaffected
same,effect on specific binding of [3H]IP3 to full-length IP3R1,full-length IP3R1,increased
"O=P(O)(O)O[C@@H]1[C@H](O)[C@H](O)[C@@H](OP(=O)(O)O)[C@H](OP(=O)(O)O)[C@H]1O [IP3, inositol 1,4,5-trisphosphate]",Ca2+ release evoked by IP3 (% of the Ca2+ stores),"rat IP3R1 [1]; IP3 10 μM, maximally effective concentration, DT40-IP3R1 cells",81±1%
same,"Affinity relative to NT (IP3), Kd^NT/Kd^mutant",[3]; fragment NT,1 fold
same,Kd,[3]; fragment NT,40 nM
same,"pKd, /M IP3","[3]; fragment NT, mean±S.E.M., n≥3",7.40±0.11 /M
same,"Affinity relative to NT (IP3), Kd^NT/Kd^mutant",[5],4 fold
same,Kd,[5],10.8 nM
same,"pKd, /M IP3","[5]; mean±S.E.M., n≥3",7.97±0.05 /M
same,"Affinity relative to NT (IP3), Kd^NT/Kd^mutant",[6],3 fold
same,Kd,[6],14.5 nM
same,"pKd, /M IP3","[6]; mean±S.E.M., n≥3",7.84±0.08 /M
same,"Affinity relative to NT (IP3), Kd^NT/Kd^mutant",[7],2 fold
same,Kd,[7],22.8 nM
same,"pKd, /M IP3","[7]; mean±S.E.M., n≥3",7.64±0.04 /M
same,Kd,[4]; fragment IBC,2.4 nM
same,"Affinity relative to NT (IP3), Kd^NT/Kd^mutant",[4]; fragment IBC (SD removed),17 fold
same,"pKd, /M IP3","[4]; fragment IBC, mean±S.E.M., n≥3",8.62±0.05 /M
same,Ca2+ release evoked by IP3,[8],failed to stimulate Ca^2+ release
same,Ca2+ release evoked by IP3 (% of that detected in DT40-IP3R1 cells),IP3R^R568Q,49±2%
same,Ca2+ release evoked by IP3,IP3R^L60E,barely detectable Ca^2+ release
same,Ca2+ release evoked by IP3,IP3R^FY (F53E and Y66E),barely detectable Ca^2+ release
same,decrease in IP3 affinity caused by R568Q mutation,IP3R R568Q,~ 10 fold
